Experimental data as given in patent publication US20190071416A1, “COMPOUNDS FOR TREATMENT OF CANCER AND EPIGENETICS” (Agency For Science, Technology and Research, priority 2015, published 2019).

What follows are compounds tested against T1, SMYD3 (Homo sapiens, UniProt Q9H7B4) (assay: SMYD3 biochemical assay (MTase-Glo, MAP3K2 peptide substrate)). Conditions: Table 3; MTase assay, MAP3K2 peptide substrate; read-out: IC50.
T1 sequence (Q9H7B4 1-428): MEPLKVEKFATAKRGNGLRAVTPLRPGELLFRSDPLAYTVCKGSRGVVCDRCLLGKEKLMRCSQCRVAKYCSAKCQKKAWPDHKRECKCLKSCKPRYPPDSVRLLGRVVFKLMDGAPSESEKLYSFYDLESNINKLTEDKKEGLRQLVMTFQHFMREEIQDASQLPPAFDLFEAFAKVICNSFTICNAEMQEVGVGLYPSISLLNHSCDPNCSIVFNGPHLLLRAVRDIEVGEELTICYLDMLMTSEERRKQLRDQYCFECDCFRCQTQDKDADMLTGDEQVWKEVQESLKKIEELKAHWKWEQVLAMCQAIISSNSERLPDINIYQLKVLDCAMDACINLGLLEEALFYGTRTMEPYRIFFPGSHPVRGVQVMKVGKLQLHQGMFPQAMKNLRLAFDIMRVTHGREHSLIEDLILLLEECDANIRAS
Procedure, shortened: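 Luminescent readout of SAH production (coupled SAH→ATP conversion, MTase-Glo) after SMYD3 reacted 30 min at room temperature with 1.0 µM SAM and 10 µM MAP3K2 peptide, both final. Non-linear regression gave IC50 values.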
An IC50 of 790 nM was found for CCCOC(=O)N1CCN(C(=O)c2ccc3c(Cl)cc(-c4ccc(N5CCCC5)cc4)nc3c2)CC1 [B050, Propyl 4-(4-chloro-2-(4-(pyrrolidin-1-yl)phenyl)quinoline-7-carbonyl)piperazine-1-carboxylate] in this work.
An IC50 of 3200 nM was found for CCCOC(=O)N1CCN(C(=O)c2ccc3c(Cl)ccnc3c2)CC1 [B051, Propyl 4-(4-chloroquinoline-7-carbonyl)piperazine-1-carboxylate] in this work.
An IC50 of 770 nM was found for CCCOC(=O)N1CCN(C(=O)c2ccc3c(Cl)cc(-c4ccc(C)cc4)nc3c2)C[C@H]1C [B052, Propyl (R)-4-(4-chloro-2-(p-tolyl)quinoline-7-carbonyl)-2-methylpiperazine-1-carboxylate] in this work.
An IC50 of 180 nM was found for CCCOC(=O)N1CCN(C(=O)c2ccc3c(Cl)cc(-c4cccc(C(N)=O)c4)nc3c2)C[C@H]1C [B053, Propyl (R)-4-(2-(3-carbamoylphenyl)-4-chloroquinoline-7-carbonyl)-2-methylpiperazine-1-carboxylate] in this work.
An IC50 of 100 nM was found for CCCOC(=O)N1CCN(C(=O)c2ccc3c(Cl)cc(-c4cccc(CN)c4)nc3c2)C[C@H]1C [B054, Propyl (R)-4-(2-(3-(aminomethyl)phenyl)-4-chloroquinoline-7-carbonyl)-2-methylpiperazine-1-carboxylate] in this work.
An IC50 of 350 nM was found for CCCOC(=O)N1CCN(C(=O)c2ccc3c(Cl)cc(-c4ccc(N(C)C)cc4)nc3c2)CC1 [B055, Propyl 4-(4-chloro-2-(4-(dimethylamino)phenyl)quinoline-7-carbonyl)piperazine-1-carboxylate] in this work.
An IC50 of 120 nM was found for CCCOC(=O)N1CCN(C(=O)c2ccc3c(Cl)c(C)c(-c4cccc(N)c4)nc3c2)C[C@H]1C [B056, Propyl (R)-4-(2-(3-aminophenyl)-4-chloro-3-methylquinoline-7-carbonyl)-2-methylpiperazine-1-carboxylate] in this work.
An IC50 of 930 nM was found for C#Cc1ccc(-c2cc(Cl)c3ccc(C(=O)N4CCN(C(=O)OCCC)CC4)cc3n2)cc1 [B057, Propyl 4-(4-chloro-2-(4-ethynylphenyl)quinoline-7-carbonyl)piperazine-1-carboxylate] in this work.
An IC50 of 1470 nM was found for CCCOC(=O)N1CCN(C(=O)c2ccc3c(Cl)cc(-c4cccc(N(C)C)c4)nc3c2)CC1 [B058, Propyl 4-(4-chloro-2-(3-(dimethylamino)phenyl)quinoline-7-carbonyl)piperazine-1-carboxylate] in this work.
An IC50 of 1000 nM was found for C#Cc1ccc(-c2cc(Cl)c3ccc(C(=O)N4CCN(C(=O)OCCC)[C@H](C)C4)cc3n2)cc1 [B059, Propyl (R)-4-(4-chloro-2-(4-ethynylphenyl)quinoline-7-carbonyl)-2-methylpiperazine-1-carboxylate] in this work.
An IC50 of 420 nM was found for CCCOC(=O)N1CCN(C(=O)c2ccc3c(Cl)cc(-c4ccc(N(C)C)cc4)nc3c2)C[C@H]1C [B060, Propyl (R)-4-(4-chloro-2-(4-(dimethylamino)phenyl)quinoline-7-carbonyl)-2-methylpiperazine-1-carboxylate] in this work.
An IC50 of 870 nM was found for CCCOC(=O)N1CCN(C(=O)c2ccc3c(Cl)cc(-c4cccc(N(C)C)c4)nc3c2)C[C@H]1C [B061, Propyl (R)-4-(4-chloro-2-(3-(dimethylamino)phenyl)quinoline-7-carbonyl)-2-methylpiperazine-1-carboxylate] in this work.
An IC50 of 340 nM was found for CCCOC(=O)N1CCN(C(=O)c2ccc3c(Cl)cc(-c4ccc(C#N)cc4)nc3c2)C[C@H]1C [B062, Propyl (R)-4-(4-chloro-2-(4-cyanophenyl)quinoline-7-carbonyl)-2-methylpiperazine-1-carboxylate] in this work.
An IC50 of 80 nM was found for CCCOC(=O)N1CCN(C(=O)c2ccc3c(Cl)cc(-c4ccc(C(N)=O)cc4)nc3c2)C[C@H]1C [B063, Propyl (R)-4-(2-(4-carbamoylphenyl)-4-chloroquinoline-7-carbonyl)-2-methylpiperazine-1-carboxylate] in this work.
An IC50 of 57 nM was found for CCCOC(=O)N1CCN(C(=O)c2ccc3c(Cl)cc(-c4ccc(CN)cc4)nc3c2)C[C@H]1C [B064, Propyl (R)-4-(2-(4-(aminomethyl)phenyl)-4-chloroquinoline-7-carbonyl)-2-methylpiperazine-1-carboxylate] in this work.
